Measurements as given in ChEMBL document CHEMBL1123689, “Quantitative structure-activity analysis in dihydropteroate synthase inhibition by sulfones. Comparison with sulfanilamides” (J Med Chem, 1987).
Where “and” joins values, the source holds several entries; their conditions need not be identical. Equal values may be shown once.

Columns and labels:
[1] = target: T1, Dihydropteroate synthase (Escherichia coli K-12) (UniProt P0AC13); experiment: Inhibition of dihydropteroate synthase of Escherichia coli
T1 sequence (whole entry): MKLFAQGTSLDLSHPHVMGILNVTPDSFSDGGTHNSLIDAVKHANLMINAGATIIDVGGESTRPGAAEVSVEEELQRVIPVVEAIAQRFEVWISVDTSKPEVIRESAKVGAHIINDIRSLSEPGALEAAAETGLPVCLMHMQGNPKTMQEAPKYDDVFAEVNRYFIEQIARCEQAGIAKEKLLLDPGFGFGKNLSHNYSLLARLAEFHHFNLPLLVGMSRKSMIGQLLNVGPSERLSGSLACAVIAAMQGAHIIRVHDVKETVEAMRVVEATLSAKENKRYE

Mycobacterium 607 = experiment: Inhibition of Dihydropteroate synthase of Mycobacterium 607 and log (1/MIC) was reported
[2] = pKa value by spectrophotometrically at pH 8.2; type: physicochemical
[3] = pKa value by spectrophotometrically at pH 8.2 (for mono ionic form); type: physicochemical; settings: read-out: pKa1
[4] = pKa value was determined by spectrophotometrically at pH 8.2 (for di ionic form ); type: physicochemical; settings: read-out: pKa2
[5] = pKa value by spectrophotometrically at pH 8.2 (for di ionic form ); type: physicochemical; settings: read-out: pKa2

SMILES	EII50 [1]	Log 1/MIC (Mycobacterium 607)	also measured
CN(C)c1ccc(S(=O)(=O)c2ccc(N)cc2)cc1	3.63		
CCNc1ccc(S(=O)(=O)c2ccc(N)cc2)cc1	4.53	4.26	
Nc1ccc(S(=O)(=O)c2ccc(NC=O)cc2)cc1	5.79	4.74	
Nc1ccc(S(=O)(=O)c2ccccc2N)cc1	2.27	4.35	
CCN(CC)c1ccc(S(=O)(=O)c2ccc(N)cc2)cc1	2.64		
CC(=O)Nc1ccc(S(=O)(=O)c2ccc(N)cc2)cc1	5.75		
Nc1ccc(S(=O)(=O)c2ccccc2)cc1	9.56		
CCN(CC)C(=O)c1ccc(S(=O)(=O)c2ccc(N)cc2)cc1	49.1		
COc1ccc(S(=O)(=O)c2ccc(N)cc2)cc1	6.6	4.02	
Cc1ccc(S(=O)(=O)c2ccc(N)cc2)c(C)c1	1.89		
COc1cc(OC)c(S(=O)(=O)c2ccc(N)cc2)c(OC)c1	12.9		
Cc1cc(C)c(S(=O)(=O)c2ccc(N)cc2)c(C)c1	1.69		
Nc1ccc(S(=O)(=O)c2ccc(N)cc2N)cc1	1.59		
Nc1ccc(S(=O)(=O)c2c(Cl)cc(Cl)cc2Cl)cc1	3.31		
COC(=O)c1ccc(S(=O)(=O)c2ccc(N)cc2)cc1	34		
COc1ccc(S(=O)(=O)c2ccc(N)cc2)c(OC)c1	3.21		
Nc1ccc(S(=O)(=O)c2ccc(O)cc2O)cc1	0.71		pKa [3]: 7.67; pKa [4]: 10.1
Nc1ccc(S(=O)(=O)c2cccc(N)c2)cc1	6.04	4.62	
Nc1ccc(S(=O)(=O)c2ccc([N+](=O)[O-])cc2[N+](=O)[O-])cc1	36.3		
Nc1ccc(S(=O)(=O)c2c(O)cc(O)cc2O)cc1	1.46 and 1.91		pKa [5]: 9.62; pKa [3]: 7.69
Nc1ccc(S(=O)(=O)c2ccc(Cl)cc2Cl)cc1	2.24		

Now from value to molecule, other results behind:

EII50 [1]	Log 1/MIC (Mycobacterium 607)	SMILES	also measured
45.3	3.36	Nc1ccc(S(=O)(=O)c2ccc([N+](=O)[O-])cc2)cc1	
2.64		Nc1ccc(S(=O)(=O)c2ccc(N)cc2)cc1	
18.1	3.5	Nc1ccc(S(=O)(=O)c2ccc(F)cc2)cc1	
67.3		N#Cc1ccc(S(=O)(=O)c2ccc(N)cc2)cc1	
22.6		NC(=O)c1ccc(S(=O)(=O)c2ccc(N)cc2)cc1	
11.1	3.59	Nc1ccc(S(=O)(=O)c2ccc(Br)cc2)cc1	
6.04		Cc1ccc(S(=O)(=O)c2ccc(N)cc2)cc1	
5.09		Nc1ccc(S(=O)(=O)c2ccc(C(=O)O)cc2)cc1	pKa [2]: 3.6
4.53	4.46	Nc1ccc(S(=O)(=O)c2ccc(NO)cc2)cc1	
43.4		CC(=O)c1ccc(S(=O)(=O)c2ccc(N)cc2)cc1	
1.5 and 2.45	5.96	Nc1ccc(S(=O)(=O)c2ccc(O)cc2)cc1	
20.8		Nc1ccc(S(=O)(=O)c2ccc(Cl)cc2)cc1	
